biological target: T1, human RORγ-LBD (Homo sapiens, UniProt P51449); test: ROR gamma coactivator peptide recruitment Alphascreen assay (RORγ-LBD binding to GRIP1 coactivator peptide); format: biochemical; conditions: 5 nM human RORγ-LBD, 30 nM 7-β-hydroxycholesterol, 50 nM biotinylated GRIP1 coactivator peptide, overnight incubation at room temperature; read-out: result (pIC50, RORγ coactivator peptide recruitment Alphascreen assay) (converted)
T1 construct: made in house; host or cells: E. coli (BL-21)
T1 sequence (P51449 262-518): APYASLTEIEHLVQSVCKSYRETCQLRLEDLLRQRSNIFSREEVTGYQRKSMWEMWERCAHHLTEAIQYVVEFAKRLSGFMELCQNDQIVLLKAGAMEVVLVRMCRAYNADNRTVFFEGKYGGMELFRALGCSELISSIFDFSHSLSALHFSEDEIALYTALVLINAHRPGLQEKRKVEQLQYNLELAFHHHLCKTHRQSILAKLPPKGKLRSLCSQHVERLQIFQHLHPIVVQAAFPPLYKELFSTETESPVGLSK
How it was run: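 His/Flag-tagged human RORγ-LBD (aa 262-518, E. coli-expressed, 5 nM) with agonist 7-β-hydroxycholesterol (30 nM) and biotinylated GRIP1 LXXLL peptide (50 nM) in HEPES pH 7.4 buffer, 2.5% DMSO. Compound 1-in-2 dilutions; Alphascreen bead signal read after overnight incubation at room temperature; pIC50 calculated.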

Row | IC50 | SMILES
1 | 49 nM | C[C@]12CC[C@](CN(CC(=O)c3c(Cl)cccc3Cl)C(=O)c3cnn([C@H]4CC[C@@H](C(=O)O)CC4)c3C(F)(F)F)(CC1)C2 [Example 615, cis-4-(4-((2-(2,6-dichlorophenyl)-2-oxoethyl)(((1r,4r)-4-methylbicyclo[2.2.1]hept-1-yl)methyl)carbamoyl)-5-(trifluoromethyl)-1H-pyrazol-1-yl)cyclohexanecarboxylic acid]
2 | 10 nM | C[C@]1(C(=O)O)CC[C@H](n2ncc(C(=O)N(CC(=O)c3c(Cl)cc(F)cc3Cl)CC3CC3)c2C(F)(F)F)CC1 [Example 695, trans-4-(4-((cyclopropylmethyl)(2-(2,6-dichloro-4-fluorophenyl)-2-oxoethyl)carbamoyl)-5-(trifluoromethyl)-1H-pyrazol-1-yl)-1-methylcyclohexanecarboxylic acid]
3 | 3.16 nM | C[C@]1(C(=O)O)CC[C@H](n2ncc(C(=O)N(CC(=O)c3c(Cl)ccc(F)c3Cl)CC3(C(F)(F)F)CC3)c2C(F)(F)F)CC1 [Example 798, (1r,4r)-4-(4-((2-(2,6-dichloro-3-fluorophenyl)-2-oxoethyl)((1-(trifluoromethyl)cyclopropyl)methyl)carbamoyl)-5-(trifluoromethyl)-1H-pyrazol-1-yl)-1-methylcyclohexanecarboxylic acid]
4 | 3.89 nM | CC(C)(F)CN(CC(=O)c1c(Cl)cccc1Cl)C(=O)c1cnn([C@H]2CC[C@](C)(C(=O)O)CC2)c1C(F)(F)F [Example 832, trans-4-(4-((2-(2,6-dichlorophenyl)-2-oxoethyl)(2-fluoro-2-methylpropyl)carbamoyl)-5-(trifluoromethyl)-1H-pyrazol-1-yl)-1-methylcyclohexanecarboxylic acid]
5 | 3.98 nM | CCC(CC)(CC)CN(CC(=O)c1c(Cl)cncc1Cl)C(=O)c1cnn([C@H]2CC[C@](C)(C(=O)O)CC2)c1C(F)(F)F [Example 644, trans-4-(4-((2-(3,5-dichloro-4-pyridinyl)-2-oxoethyl)(2,2-diethylbutyl)carbamoyl)-5-(trifluoromethyl)-1H-pyrazol-1-yl)-1-methylcyclohexanecarboxylic acid]
6 | 21.9 nM | CC(C)(C)CN(CC(=O)c1c(Cl)cccc1Cl)C(=O)c1cnn([C@H]2CC[C@@H](C(=O)O)CC2)c1C(F)(F)F [Example 670, cis-4-(4-((2-(2,6-dichlorophenyl)-2-oxoethyl)(2,2-dimethylpropyl)carbamoyl)-5-(trifluoromethyl)-1H-pyrazol-1-yl)cyclohexanecarboxylic acid]
7 | 7.08 nM | CC1(C)CC(CN(CC(=O)c2c(Cl)cncc2Cl)C(=O)c2cnn([C@H]3CC[C@](C)(C(=O)O)CC3)c2C(F)(F)F)C1 [Example 559, trans-4-(4-((2-(3,5-dichloro-4-pyridinyl)-2-oxoethyl)((3,3-dimethylcyclobutyl)methyl)carbamoyl)-5-(trifluoromethyl)-1H-pyrazol-1-yl)-1-methylcyclohexanecarboxylic acid]
8 | 302 nM | CC(C)(C)CN(CCc1c(Cl)cn2ncnc2c1Cl)C(=O)c1cnn([C@H]2CC[C@](C)(C(=O)O)CC2)c1C(F)(F)F [Example 892, trans-4-(4-((2-(6,8-dichloro[1,2,4]triazolo[1,5-a]pyridin-7-yl)ethyl)(2,2-dimethylpropyl)carbamoyl)-5-(trifluoromethyl)-1H-pyrazol-1-yl)-1-methylcyclohexanecarboxylic acid]
9 | 4.9 nM | CC(C)(C)CN(CC(=O)c1c(Cl)cccc1Cl)C(=O)c1cnn([C@H]2CC[C@H](C(=O)O)CC2)c1C(F)(F)F [Example 545, trans-4-(4-((2-(2,6-dichlorophenyl)-2-oxoethyl)(2,2-dimethylpropyl)carbamoyl)-5-(trifluoromethyl)-1H-pyrazol-1-yl)cyclohexanecarboxylic acid]
10 | 3.98 nM | CC(C)(C)CN(CC(=O)c1c(Cl)cncc1Cl)C(=O)c1cnn([C@H]2CC[C@H](C(=O)O)C(C)(C)C2)c1C(F)(F)F (single isomer, unassigned) [Example 785]
11 | 3.39 nM | C[C@]1(C(=O)O)CC[C@H](n2ncc(C(=O)N(CC(=O)c3c(Cl)cncc3Cl)[C@H]3CCC34CCC4)c2C(F)(F)F)CC1 [Example 748, trans-4-(4-((2-(3,5-dichloro-4-pyridinyl)-2-oxoethyl)((1S)-spiro[3.3]hept-1-yl)carbamoyl)-5-(trifluoromethyl)-1H-pyrazol-1-yl)-1-methylcyclohexanecarboxylic acid]
12 | 20.4 nM | C[C@]1(CN(CC(=O)c2c(Cl)cncc2Cl)C(=O)c2cnn([C@H]3CC[C@](C)(C(=O)O)CC3)c2C(F)(F)F)CCCO1 [Example 661, trans-4-(4-((2-(3,5-dichloro-4-pyridinyl)-2-oxoethyl)(((2R)-2-methyltetrahydro-2-furanyl)methyl)carbamoyl)-5-(trifluoromethyl)-1H-pyrazol-1-yl)-1-methylcyclohexanecarboxylic acid]
13 | 2.09 nM | CC1(CN(CCc2c(Cl)cncc2Cl)C(=O)c2cnn([C@H]3CC[C@](C)(C(=O)O)CC3)c2C(F)(F)F)CCCC1 [Example 591, trans-4-(4-((2-(3,5-dichloro-4-pyridinyl)ethyl)((1-methylcyclopentyl)methyl)carbamoyl)-5-(trifluoromethyl)-1H-pyrazol-1-yl)-1-methylcyclohexanecarboxylic acid]
14 | 6.03 nM | Cc1cc(Cl)c(C(=O)CN(C(=O)c2cnn(C3CCC(C(=O)O)CC3)c2C(F)(F)F)C2CCC(C)(C)CC2)c(Cl)c1 (stereo in doubt) [Example 516, trans-4-(4-((2-(2,6-dichloro-4-methylphenyl)-2-oxoethyl)(4,4-dimethylcyclohexyl)carbamoyl)-5-(trifluoromethyl)-1H-pyrazol-1-yl)-1-cyclohexanecarboxylic acid]
15 | 4.47 nM | C[C@@H]1C[C@@H](n2ncc(C(=O)N(CC(=O)c3c(Cl)cncc3Cl)[C@H]3CCC34CCC4)c2C(F)(F)F)CC[C@@H]1C(=O)O [Example 816, (1S,2R,4S)-4-(4-((2-(3,5-dichloro-4-pyridinyl)-2-oxoethyl)((1S)-spiro[3.3]hept-1-yl)carbamoyl)-5-(trifluoromethyl)-1H-pyrazol-1-yl)-2-methylcyclohexanecarboxylic acid]
16 | 117 nM | CC1(C)CC[C@@H]1N(CC(=O)c1c(Cl)cncc1Cl)C(=O)c1cnn([C@H]2CC[C@](C)(C(=O)O)CC2)c1C(F)(F)F [Example 617, trans-4-(4-((2-(3,5-dichloro-4-pyridinyl)-2-oxoethyl)((1S)-2,2-dimethylcyclobutyl)carbamoyl)-5-(trifluoromethyl)-1H-pyrazol-1-yl)-1-methylcyclohexanecarboxylic acid]
17 | 102 nM | Cc1cc(F)c(C(=O)CN(C[C@@]2(C)CCCO2)C(=O)c2cnn([C@H]3CC[C@](C)(C(=O)O)CC3)c2C(F)(F)F)c(Cl)c1 [Example 806, trans-4-(4-((2-(2-chloro-6-fluoro-4-methylphenyl)-2-oxoethyl)(((2R)-2-methyltetrahydro-2-furanyl)methyl)carbamoyl)-5-(trifluoromethyl)-1H-pyrazol-1-yl)-1-methylcyclohexanecarboxylic acid]
18 | 5.62 nM | CC1(C)CC(CN(CC(=O)c2c(F)cccc2Cl)C(=O)c2cnn([C@H]3CC[C@](C)(C(=O)O)CC3)c2C(F)(F)F)C1 [Example 595, trans-4-(4-((2-(2-chloro-6-fluorophenyl)-2-oxoethyl)((3,3-dimethylcyclobutyl)methyl)carbamoyl)-5-(trifluoromethyl)-1H-pyrazol-1-yl)-1-methylcyclohexanecarboxylic acid]
19 | 3.31 nM | Cc1cc(Cl)c(C(=O)CN(Cc2ccc(Cl)cc2)C(=O)c2cnn([C@H]3CC[C@H](C(=O)O)CC3)c2C(F)(F)F)c(Cl)n1 [Example 543, trans-4-(4-((4-chlorobenzyl)(2-(2,4-dichloro-6-methyl-3-pyridinyl)-2-oxoethyl)carbamoyl)-5-(trifluoromethyl)-1H-pyrazol-1-yl)cyclohexanecarboxylic acid]
20 | 1070 nM | CO[C@@H](CN(CC(C)(C)C)C(=O)c1cnn([C@H]2CC[C@H](C(=O)O)CC2)c1C(F)(F)F)c1c(Cl)cc(C)cc1Cl [Example 531, trans-4-(4-(((2R)-2-(2,6-dichloro-4-methylphenyl)-2-methoxyethyl)(2,2-dimethylpropyl)carbamoyl)-5-(trifluoromethyl)-1H-pyrazol-1-yl)cyclohexanecarboxylic acid]
21 | 9.33 nM | C[C@@H]1C[C@H](n2ncc(C(=O)N(CC(=O)c3c(Cl)cncc3Cl)CC(C)(C)C)c2C(F)(F)F)CC[C@H]1C(=O)O [Example 812, (1R,2R,4R)-4-(4-((2-(3,5-dichloro-4-pyridinyl)-2-oxoethyl)(2,2-dimethylpropyl)carbamoyl)-5-(trifluoromethyl)-1H-pyrazol-1-yl)-2-methylcyclohexanecarboxylic acid]
22 | 115 nM | CC1(C)CC(CN(CC(=O)c2c(F)cccc2F)C(=O)c2cnn([C@H]3CC[C@](C)(C(=O)O)CC3)c2C(F)(F)F)C1 [Example 598, trans-4-(4-((2-(2,6-difluorophenyl)-2-oxoethyl)((3,3-dimethylcyclobutyl)methyl)carbamoyl)-5-(trifluoromethyl)-1H-pyrazol-1-yl)-1-methylcyclohexanecarboxylic acid]
23 | 53.7 nM | CC(C)CCN(CC(=O)c1c(Cl)cccc1Cl)C(=O)c1cnn([C@H]2CC[C@H](C(=O)O)[C@H](C)C2)c1C(F)(F)F [Example 804, (1S,2R,4S)-4-(4-((2-(2,6-dichlorophenyl)-2-oxoethyl)(3-methylbutyl)carbamoyl)-5-(trifluoromethyl)-1H-pyrazol-1-yl)-2-methylcyclohexanecarboxylic acid]

From patent US9365522B2, “Pyrazole amide derivative” (AMGEN INC., priority 2015, dated 2016)
